In US7045528B2, “Benzofused heterozryl amide derivatives of thienopyridines useful as therapeutic agents, pharmaceutical compositions including the same, and methods for their use” (Agouron Pharmaceuticals, Inc., priority 2002, dated 2006):

Legend:
[1] = target: T1, unphosphorylated VEGF-R2Δ50 (FLVK) (Homo sapiens, UniProt P35968, DEL940-989/E990V); test: VEGF-R2 coupled spectrophotometric assay, unphosphorylated VEGF-R2Δ50 (FLVK); type: biochemical; conditions: unphosphorylated VEGF-R2Δ50; for inhibition at 0.05 µM: 50 nM compound, read-out: FLVK (% inh @ 50 nM)
T1 construct: VEGF-R2Δ50 contains residues 806–939 and 990–1171; made in house; host or cells: baculovirus/insect cell system
T1 sequence (P35968 with tags, fused parts or gaps DEL940-989/E990V limits assumed): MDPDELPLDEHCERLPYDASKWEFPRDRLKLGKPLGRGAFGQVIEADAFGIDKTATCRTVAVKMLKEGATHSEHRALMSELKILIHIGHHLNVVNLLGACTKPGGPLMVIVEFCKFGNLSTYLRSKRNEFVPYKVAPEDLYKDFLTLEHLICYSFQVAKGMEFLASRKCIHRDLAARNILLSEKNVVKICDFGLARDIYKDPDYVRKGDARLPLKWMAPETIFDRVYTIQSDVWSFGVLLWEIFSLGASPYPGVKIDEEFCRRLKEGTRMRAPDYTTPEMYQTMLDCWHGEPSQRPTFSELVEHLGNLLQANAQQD
Excerpt: VEGF-R2 Construct for Assay:
This construct determines the ability of a test compound to inhibit tyrosine kinase activity. A construct (VEGF-R2Δ50) of the cytosolic domain of human vascular endothelial growth factor receptor 2 (VEGF-R2) lacking the 50 central residues of the 68 residues of the kinase insert domain was expressed in a baculovirus/insect cell system. Of the 1356 residues of full-length VEGF-R2, VEGF-R2Δ50 contains residues 806–939 and 990–1171, and also one point mutation (E990V) within the kinase insert domain relative to wild-type VEGF-R2. Autophosphorylation of the purified construct was performed by incubation of the enzyme at a concentration of 4 μM in the presence of 3 mM ATP and 40 mM MgCl2 in 100 mM HEPES, pH 7.5, containing 5% glycerol and 5 mM DTT, at 4° C. for 2 h. […] See Parast et al., Biochemistry, 37, 16788–16801 (1998).
Coupled Spectrophotometric (FLVK-P) Assay
The production of ADP from ATP that accompanies phosphoryl transfer was coupled to oxidation of NADH using phosphoenolpyruvate (PEP) and a system having pyruvate kinase (PK) and lactic dehydrogenase (LDH). The oxidation of NADH was monitored by following the decrease of absorbance at 340 nm (e340=6.22 cm^−1 mM^−1) using a Beckman DU 650 spectrophotometer. Assay conditions for phosphorylated VEGF-R2Δ50 (indicated as FLVK-P in the tables below) were the following: 1 mM PEP; 250 μM NADH; 50 units of LDH/mL; 20 units of PK/mL; 5 mM DTT; 5.1 mM poly(E4Y1); 1 mM ATP; and 25 mM MgCl2 in 200 mM HEPES, pH 7.5. Assay conditions for unphosphorylated VEGF-R2Δ50 (indicated as FLVK in the tables) were the following: 1 mM PEP; 250 μM NADH; 50 units of LDH/mL; 20 units of PK/mL; 5 mM DTT; 20 mM poly(E4Y1); 3 mM ATP; and 60 mM MgCl2 and 2 mM MnCl2 in 200 mM HEPES, pH 7.5. Assays were initiated with 5 to 40 nM of enzyme. Ki values were determined by measuring enzyme activity in the presence of varying concentrations of test compounds. […] The binding inhibitions were fitted to equation as described by Morrison. The data were analyzed using Enzyme Kinetic and Kaleidagraph software.

[2] = target: T2, PDGFRβ (Homo sapiens, UniProt P09619); test: PAE-PDGFRβ phosphorylation in PAE-PDGFRB cells assay; type: cell-based; conditions: PAE cells overexpressing human PDGFRβ, PDGF-BB stimulated; read-out: PAE PDGFR autophos IC50 (nM) AVG
T2 construct: expressed in transfected cells; host or cells: porcine aorta endothelial (PAE)-PDGFRβ cells
T2 sequence (P09619 33-1106): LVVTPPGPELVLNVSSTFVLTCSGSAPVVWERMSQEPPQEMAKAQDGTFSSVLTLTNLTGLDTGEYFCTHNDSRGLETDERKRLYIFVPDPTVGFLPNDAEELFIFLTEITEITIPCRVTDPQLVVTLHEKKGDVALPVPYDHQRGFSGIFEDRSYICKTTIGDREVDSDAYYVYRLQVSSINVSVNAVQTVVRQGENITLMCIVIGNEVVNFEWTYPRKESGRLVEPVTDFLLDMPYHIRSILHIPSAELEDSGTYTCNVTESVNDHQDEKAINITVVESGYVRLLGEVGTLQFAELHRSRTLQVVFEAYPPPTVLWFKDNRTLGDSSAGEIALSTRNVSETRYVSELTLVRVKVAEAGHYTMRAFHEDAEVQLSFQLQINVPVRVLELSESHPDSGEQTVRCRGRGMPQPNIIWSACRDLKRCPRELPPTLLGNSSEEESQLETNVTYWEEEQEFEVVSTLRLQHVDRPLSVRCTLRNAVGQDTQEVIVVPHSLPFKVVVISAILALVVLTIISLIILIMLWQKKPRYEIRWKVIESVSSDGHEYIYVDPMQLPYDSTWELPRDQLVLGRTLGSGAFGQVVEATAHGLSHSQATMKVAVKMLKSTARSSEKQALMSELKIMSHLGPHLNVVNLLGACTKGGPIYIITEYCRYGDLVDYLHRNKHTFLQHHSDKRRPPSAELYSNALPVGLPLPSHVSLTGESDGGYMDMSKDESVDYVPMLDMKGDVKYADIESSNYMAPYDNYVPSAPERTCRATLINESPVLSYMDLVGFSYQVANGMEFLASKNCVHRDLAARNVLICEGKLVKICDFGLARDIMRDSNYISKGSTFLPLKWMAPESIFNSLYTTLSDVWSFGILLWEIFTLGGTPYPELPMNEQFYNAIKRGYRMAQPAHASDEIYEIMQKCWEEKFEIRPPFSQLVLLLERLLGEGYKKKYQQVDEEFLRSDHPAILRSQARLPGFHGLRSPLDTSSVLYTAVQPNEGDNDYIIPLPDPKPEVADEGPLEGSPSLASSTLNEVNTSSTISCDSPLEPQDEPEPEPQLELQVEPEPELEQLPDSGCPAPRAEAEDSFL
Method: PAE-PDGFRβ Phosphorylation in PAE-PDGFRB Cells Assay
This assay determines the ability of a test compound to inhibit the autophosphorylation of PDGFRβ in porcine aorta endothelial (PAE)-PDGFRβ cells. PAE cells that overexpress human PDGFRβ were used in this assay. The cells were cultured in Ham's F12 media supplemented with 10% fetal bovine serum (FBS) and 400 ug/ml G418. Twenty thousands cells were seeded in each well of a 96-well plate in 50 μL of growth media and allowed to attach for 6 hours at 37° C. Cells were then exposed to the starvation media (Ham's F12 media supplemented with 0.1% FBS) for 16 hours. After the starvation period was over, 10 μL of test agent in 5% DMSO in starvation media were added to the test wells and 10 μL of the vehicle (5% DMSO in starvation media) were added into the control wells. The final DMSO concentration in each well was 0.5%. Plates were incubated at 37° C. for 1 hour and the cells were then stimulated with 1 μg/mL PDGF-BB (R & D System) in the presence of 2 mM Na3VO4 for 8 minutes. The cells were washed once with 1 mm Na3VO4 in HBSS and lysed by adding 50 μL per well of lysis buffer. One hundred μL of dilution buffer were then added to each well and the diluted cell lysate was transferred to a 96-well goat ant-rabbit coated plate (Pierce), which was pre-coated with Rabbit anti Human PDGFRβ antibody (Santa Cruz). The plates were incubated at room temperature for 2 hours and washed seven times with 1% Tween 20 in PBS. HRP-PY20 (Santa Cruz) was diluted and added to the plate for a 30-minute incubation. Plates were then washed again and TMB peroxidase substrate (Kirkegaard & Perry) was added for a 10-minute incubation. One hundred μL of 0.09 N H2SO4 was added into each well of the 96-well plate to stop the reaction. Phosphorylation status was assessed by spectrophotometer reading at 450 nm. IC50 values were calculated by curve fitting using a four-parameter analysis.

[3] = system: human umbilical vein endothelial cells (HUVEC); test: HUVEC+VEGF proliferation assay; type: cell-based; conditions: Homo sapiens, HUVEC; VEGF 6 ng/mL, 72 h, MTT
Method: HUVEC+VEGF Proliferation Assay
This assay determines the ability of a test compound to inhibit the growth factor-stimulated proliferation of human umbilical vein endothelial cells (“HUVEC”). HUVEC cells (passage 3–4; Clonetics, Corp.) were thawed into EGM2 culture medium (Clonetics Corp) in T75 flasks. Fresh EGM2 medium was added to the flasks 24 hours later. Four or five days later, cells were exposed to another culture medium (F12K medium supplemented with 10% fetal bovine serum (FBS), 60 μg/mL endothelial cell growth supplement (ECGS), and 0.1 mg/mL heparin). Exponentially-growing HUVEC cells were used in experiments thereafter. Ten to twelve thousand HUVEC cells were plated in 96-well dishes in 100 μl of rich, culture medium (described above). The cells were allowed to attach for 24 hours in this medium. The medium was then removed by aspiration and 105 μl of starvation media (F12K+1% FBS) was added to each well. After 24 hours, 15 μl of test agent dissolved in 1% DMSO in starvation medium or this vehicle alone was added into each treatment well; the final DMSO concentration was 0.1%. One hour later, 30 μl of VEGF (30 ng/mL) in starvation media was added to all wells except those containing untreated controls; the final VEGF concentration was 6 ng/mL. Cellular proliferation was quantified 72 hours later by MTT dye reduction, at which time cells were exposed for 4 hours MTT (Promega Corp.). Dye reduction was stopped by addition of a stop solution (Promega Corp.) and absorbance at 595 nm was determined on a 96-well spectrophotometer plate reader.

Row | inhibition at 0.05 µM [1] [%] | Ki [1] [nM] | IC50 [2] [nM] | SMILES | IC50 [3] [nM]
1 | 75 | 5.2 | 90.7 | Cc1c(C(=O)NC(C)C)c2ccc(Oc3ccnc4cc(-c5nccs5)sc34)cc2n1C [Example 66, 1,2-Dimethyl-6-(2-thiazol-2-yl-thieno[3,2-b]pyridin-7-yloxy)-1H-indole-3-carboxylic acid isopropylamide] | 5.8
2 | 67 | 3.21 |  | CNC(=O)c1csc(-c2cc3nccc(Oc4ccc5c(C(=O)NC)c(C)n(C)c5c4)c3s2)n1 [Example 43, 1,2-Dimethyl-6-[2-(4-methylcarbamoyl-thiazol-2-yl)-thieno[3,2-b]pyridin-7-yloxy]-1H-indole-3-carboxylic acid methylamide] | 10
3 | 76 | 2.8 | 8.9 | CNC(=O)c1c(C)n(C)c2cc(Oc3ccnc4cc(-c5ccccn5)sc34)ccc12 [Example 42, 1,2-Dimethyl-6-(2-pyridin-2-yl-thieno[3,2-b]pyridin-7-yloxy)-1H-indole-3-carboxylic acid methylamide] | 4.34
4 | 66 | 4.3 |  | CNC(=O)c1c(C)n(C)c2cc(Oc3ccnc4cc(C(=O)N5C[C@@H](O)[C@@H](O)C5)sc34)ccc12 [Example 37, 6-[2-(3,4-Dihydroxy-pyrrolidine-1-carbonyl)-thieno[3,2-b]pyridin-7-yloxy]-1,2-dimethyl-1H-indole-3-carboxylic acid methylamide] | 10
5 | 34 | 27.7 |  | CCC(=O)c1cc2nccc(Oc3ccc4c(C(=O)NC)c(C)n(C)c4c3)c2s1 [Example 51, 1,2-Dimethyl-6-(2-propionyl-thieno[3,2-b]pyridin-7-yloxy)-1H-indole-3-carboxylic acid methylamide] | 82
6 | 62 | 4.86 | 31 | Cc1c(C(=O)NCC2CC2)c2ccc(Oc3ccnc4cc(-c5nccn5C)sc34)cc2n1C [Example 55, N-(Cyclopropylmethyl)-1,2-dimethyl-6-{[2-(1-methyl-1H-imidazol-2-yl)thieno[3,2-b]pyridin-7-yl]oxy}-1H-indole-3-carboxamide] | 5.8
7 | 12 | 47 | 61 | CNC(=O)c1c(C)n(C)c2cc(Oc3ccnc4cc(-c5cncnc5)sc34)ccc12 [Example 39, 1,2-Dimethyl-6-(2-pyrimidin-5-yl-thieno[3,2-b]pyridin-7-yloxy)-1H-indole-3-carboxylic acid methylamide] | 8.7
8 | 67 | 16 |  | CNC(=O)c1c(C)n(C)c2cc(Oc3ccnc4cc(-c5cccc(OC)n5)sc34)ccc12 [Example 49, 6-[2-(6-Methoxy-pyridin-2-yl)-thieno[3,2-b]pyridin-7-yloxy]-1,2-dimethyl-1H-indole-3-carboxylic acid methylamide] | 7

More lines, now with the values behind:

Row | SMILES | inhibition at 0.05 µM [1] [%] | Ki [1] [nM] | IC50 [2] [nM] | IC50 [3] [nM]
9 | Cc1oc2cc(Oc3ccnc4cc(C(=O)N5CCC[C@H]5CO)sc34)ccc2c1C(=O)NCC(C)C [Example 86, 2-Methyl-6-[2-(2-hydroxymethyl-pyrrolidine-1-carbonyl)-thieno[3,2-b]pyridin-7-yloxy]-benzofuran-3-carboxylic acid isobutyl amide] | 81 | 1.44 | 17.9 | 3.07
10 | CCc1oc2cc(Oc3ccnc4cc(C(=O)N5CCC5)sc34)ccc2c1C(=O)NC [Example 98, 6-[2-(Azetidine-1-carbonyl)-thieno[3,2-b]pyridin-7-yloxy]-2-ethyl-benzofuran-3-carboxylic acid methylamide] | 86 | 0.38 | 127 | 9.4
11 | CNC(=O)c1c(C)n(C)c2cc(Oc3ccnc4cc(C(=O)N5CCC(CN)C5)sc34)ccc12 (stereo not drawn) [Example 45, 6-[2-(3-Aminomethyl-pyrrolidine-1-carbonyl)-thieno[3,2-b]pyridin-7-yloxy]-1,2-dimethyl-1H-indole-3-carboxylic acid methylamide] | 64 | 4.65 | 26.9 | 10
12 | CNCC1CCN(C(=O)c2cc3nccc(Oc4ccc5c(C(=O)NC)c(C)n(C)c5c4)c3s2)C1 (stereo not drawn) [Example 46, 1,2-Dimethyl-6-[2-(3-methylaminomethyl-pyrrolidine-1-carbonyl)-thieno[3,2-b]pyridin-7-yloxy]-1H-indole-3-carboxylic acid methylamide] | 68 | 6.49 |  | 3.13
13 | CCc1sc2cc(Oc3ccnc4cc(C(=O)N5CC[C@@H](O)C5)sc34)ccc2c1C(=O)NC [Example 136, 2-Ethyl-6-[(2-{[(3R)-3-hydroxypyrrolidin-1-yl]carbonyl}thieno[3,2-b]pyridin-7-yl)oxy]benzo[b]thiophene-3-carboxylic acid methylamide] | 88 | 1.17 | 609 | 10
14 | COC[C@@H]1CCCN1C(=O)c1cc2nccc(Oc3ccc4c(C(=O)NCC5CC5)c(C)sc4c3)c2s1 [Example 132, 6[(2-{[(2S)-2-(Methoxymethyl)pyrrolidin-1-yl]carbonyl}thieno[3,2-b]pyridin-7-yl)oxy]-2-methylbenzo[b]thiophene-3-carboxyllc acid (cyclopropylmethyl)amide] | 80 | 1.78 | 467 | 5.8
